Series [1] can be described thus: Pharmacokinetic evaluation in mice, oral administration. The series is classed as in vivo, Balb/c mice. As to conditions: p.o. 5 mg/kg, plasma, single PK; for AUC(0-inf) / AUC(0-t) / Cmax / Tmax / MRT inf: mouse, in vivo, po; for MRT inf: read-out: MRT 0-∞. The procedure, abridged:
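Male Balb/c mice (n=3) dosed p.o. at 5 mg/kg after overnight fast, vehicle 10% PEG400/10% PG/80% glycine buffer (pH 10), 0.5 mg/mL. EDTA plasma, acetonitrile precipitation, compound quantified by LC/MS/MS; PK parameters by noncompartmental-style software calculation.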

A further series deals with T1, human GLP-1 receptor (Homo sapiens, UniProt P43220).
T1 construct: expressed in transfected cells
T1 sequence (P43220 24-463): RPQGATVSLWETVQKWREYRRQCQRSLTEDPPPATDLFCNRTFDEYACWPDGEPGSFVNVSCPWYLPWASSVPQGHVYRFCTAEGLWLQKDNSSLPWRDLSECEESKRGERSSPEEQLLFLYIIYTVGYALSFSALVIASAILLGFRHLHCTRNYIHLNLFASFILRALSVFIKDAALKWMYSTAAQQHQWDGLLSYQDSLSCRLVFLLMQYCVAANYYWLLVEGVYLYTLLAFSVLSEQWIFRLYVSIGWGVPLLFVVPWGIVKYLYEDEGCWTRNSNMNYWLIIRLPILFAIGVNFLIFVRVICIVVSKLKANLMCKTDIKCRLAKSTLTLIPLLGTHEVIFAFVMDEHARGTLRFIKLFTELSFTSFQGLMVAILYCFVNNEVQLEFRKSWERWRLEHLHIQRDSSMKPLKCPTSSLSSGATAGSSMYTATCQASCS
The series can be described thus: cAMP production in cell line stably transformed with human GLP1 receptor, 30 min co-incubation (HTRF). The series is classed as cell-based. Particulars: CHO-K1/GLP-1R/CRE-luc cells, stimulation for 0.5 h.

A short description of series [2]: Pharmacokinetic evaluation in Macaca fascicularis monkeys, oral administration. The series is classed as in vivo. As to conditions: cynomolgus monkey, p.o. 5 mg/kg, plasma; for MRT inf: read-out: MRT 0-∞. The protocol:
Macaca fascicularis monkeys were used as test animals to study the pharmacokinetic behavior of the compound of the present invention, administered orally at a dose of 5 mg/kg, in Macaca fascicularis monkeys (plasma).
Macaca fascicularis monkeys, 3 per group, male.
Preparation of drug for oral administration: 10%PEG400/10%PG/80% glycine buffer (100 mM glycine, 64 Mm NaOH, […]) buffer.
Single PK: The compound of the present invention was weighed into a 100 mL glass bottle, and the solution was added. The pH was first adjusted with 1 M NaOH until the compound dissolves to obtain a clear solution, and then the pH was readjusted to pH 9.0-9.5 with 1 M HCl. Sonication was performed for 10 min to obtain a colorless clear solution having a concentration of 1 mg/mL.
Three Macaca fascicularis monkeys, male, respectively administered p.o. after fasting overnight, at a dose of 5 mg/kg and in an administration volume of 5 mL/kg.
Blood collection: 0.3 mL of blood was collected from the forelimb vein of the Macaca fascicularis monkeys before administration and at 0.25, 0.5, 1, 2, 4, 6, 8, and 24 h after administration. The blood samples were placed in EDTA-K2 anticoagulant tubes and centrifuged at 6000 rpm at 4°C for 6 min to separate plasma, which was stored at -80°C. The Macaca fascicularis monkeys were fed 4 h after administration.
• 1) 40 µL of a plasma sample was added with 160 µL of acetonitrile for precipitation, and after mixing, the mixture was centrifuged at 3500 × g for 5 to 20 min. • 2) The supernatant solution after treatment was taken for LC/MS/MS analysis of the concentration of the test compound. The LC/MS/MS analysis instrument was AB Sciex API 4000 Qtrap.
• Liquid phase condition: Shimadzu LC-20AD pump • Chromatographic column: Agilent ZORBAX XDB-C18 (50×2.1 mm, 3.5 µm) Mobile phase: Solution A was 0.1% formic acid aqueous solution, and Solution B was acetonitrile • Flow rate: 0.4 mL/min • Elution time: 0-4.0 min, the eluent was as follows: […]

Where two headings read alike, the source gives them in different places.

With `Cc1cc(-n2nc3c(c2-n2ccn(-c4ccc5c(cnn5C5CC5)c4F)c2=O)[C@H](C)N(C(=O)c2cc4cc([C@H]5CCOC(C)(C)C5)ccc4n2[C@@]2(c4noc(=O)[nH]4)C[C@@H]2COC2CC2)CC3)cc(C)c1F` [Example 67], in series [1], the AUC(0-inf) came out at 12100 ng·h/mL, the AUC(0-t) came to 11200 ng·h/mL, the highest concentration (Cmax) stood at 1430 ng/mL and the Tmax was 4 h. Further, in series [1], the MRT inf amounted to 8.2 h and the tl/2 was determined as 7.6 h. Further, the EC50 at human GLP-1 receptor turned out to be 1.4 nM.
As for `C#C[C@H]1C[C@]1(c1noc(=O)[nH]1)n1c(C(=O)N2CCc3nn(-c4cc(C)c(F)c(C)c4)c(-n4ccn(-c5ccc6c(cnn6C6CC6)c5F)c4=O)c3[C@@H]2C)cc2cc([C@H]3CCOC(C)(C)C3)ccc21` [Example 143], in series [2] (male), the AUC(0-inf) was 26200 ng·h/mL, the AUC(0-t) amounted to 26000 ng·h/mL, the Cmax came to 4040 ng/mL and the time of peak concentration (Tmax) is 2.7 h. Further, in series [2] (male), the half-life was 192 min and the MRT inf was found to be 5.1 h. In series [1] (male, Balb/c), the AUC(0-inf) stood at 13300 ng·h/mL, the area under the curve AUC(0-t) is 12200 ng·h/mL, the concentration peaked (Cmax) at 1200 ng/mL and the Tmax was determined as 2 h. Besides, in series [1] (male, Balb/c), the MRT inf was 9 h. The tl/2 in series [1] is on record as 6.9 h.
For `CC#C[C@H]1C[C@]1(c1noc(=O)[nH]1)n1c(C(=O)N2CCc3nn(-c4cc(C)c(F)c(C)c4)c(-n4ccn(-c5ccc6c(cnn6C6CC6)c5F)c4=O)c3[C@@H]2C)cc2cc([C@H]3CCOC(C)(C)C3)ccc21` [Example 144, 3-((1S,2R)-1-(2-((S)-3-(3-(1-cyclopropyl-4-fluoro-1H-indazole-5-yl)-2-carbonyl-2,3-dihydro-1H-imidazole-1-yl)-2-(4-fluoro-3,5-dimethylphenyl)-4-methyl-4,5,6,7-tetrahydro-2H-pyrazolo[4,3-c]pyridin-5-carbonyl)-5-((S)-2,2-dimethyltetrahydro-2H-pyrano-4-yl)-1H-indole-1-yl)-2-(propyl-1-alkynyl-1-yl)cyclopropyl)-1,2,4-oxadiazol-5(4H)-one], in series [1], the AUC(0-inf) is 35100 ng·h/mL, the AUC(0-t) was found to be 23500 ng·h/mL, the Cmax was determined as 2240 ng/mL and the time of peak concentration (Tmax) turned out to be 3 h. For the same compound, in series [1], the MRT inf came to 20.8 h and the tl/2 is listed as 15.7 h. Also, on human GLP-1 receptor (read-out: EC50), the EC50 was found to be 1 nM.
For the compound `[2H]C([2H])([2H])n1nc2c3c(c(-n4ccn(-c5c6c(nn5-c5cc(C)c(F)c(C)c5)CCN(C(=O)c5cc7cc([C@H]8CCOC(C)(C)C8)ccc7n5[C@@]5(c7noc(=O)[nH]7)C[C@@H]5C)[C@H]6C)c4=O)ccc31)OCCC2` [Example 282, 3-((1S,2S)-1-(5-((S)-2,2-dimethyltetrahydro-2H-pyran-4-yl)-2-((S)-2-(4-fluoro-3,5-dimethylphenyl)-4-methyl-3-(3-(2-(methyl-d3)-2,7,8,9-tetrahydrooxaheptano[4,3,2-cd]indazol-5-yl)-2-carbonyl-2,3-dihydro-1H-imidazol-1-yl)-4,5,6,7-tetrahydro-2H-pyrazolo[4,3-c]pyridine-5-carbonyl)-1H-indol-1-yl)-2-methylcyclopropyl)-1,2,4-oxadiazol-5(4H)-one], in series [2], the AUC(0-inf) amounted to 17000 ng·h/mL, the area under the curve AUC(0-t) was found to be 7560 ng·h/mL, the Cmax worked out at 570 ng/mL and the time of peak concentration (Tmax) was 4 h. For the same compound, in series [2], the half-life is 2860 min and the MRT inf turned out to be 68.9 h. Moreover, in series [1], the AUC(0-inf) worked out at 18200 ng·h/mL, the AUC(0-t) was 15000 ng·h/mL, the peak level (Cmax) was 1510 ng/mL and the Tmax was 2 h. In addition, in series [1], the MRT inf was 13 h and the tl/2 is on record as 9.7 h.

For the origin of these results see patent EP4755885A1 (Shanghai Hansoh Biomedical Co., Ltd., priority 2023, dated 2025).
